Assay results: publication PMC12467068, “Design, Synthesis, and Computational Insights into PKMYT1 Inhibitors for the Treatment of Breast Cancer” (Biomedicines, 2025)
Entries after “also recorded” stand apart in the source; their conditions may differ.

Legend:
PKMYT1 = biological target: T1, PKMYT1 (Homo sapiens, UniProt Q99640); assay: PKMYT1 enzyme inhibition assay (LanthaScreen Eu kinase binding method); settings: mean of two separate experiments
T1 sequence (Q99640 1-499): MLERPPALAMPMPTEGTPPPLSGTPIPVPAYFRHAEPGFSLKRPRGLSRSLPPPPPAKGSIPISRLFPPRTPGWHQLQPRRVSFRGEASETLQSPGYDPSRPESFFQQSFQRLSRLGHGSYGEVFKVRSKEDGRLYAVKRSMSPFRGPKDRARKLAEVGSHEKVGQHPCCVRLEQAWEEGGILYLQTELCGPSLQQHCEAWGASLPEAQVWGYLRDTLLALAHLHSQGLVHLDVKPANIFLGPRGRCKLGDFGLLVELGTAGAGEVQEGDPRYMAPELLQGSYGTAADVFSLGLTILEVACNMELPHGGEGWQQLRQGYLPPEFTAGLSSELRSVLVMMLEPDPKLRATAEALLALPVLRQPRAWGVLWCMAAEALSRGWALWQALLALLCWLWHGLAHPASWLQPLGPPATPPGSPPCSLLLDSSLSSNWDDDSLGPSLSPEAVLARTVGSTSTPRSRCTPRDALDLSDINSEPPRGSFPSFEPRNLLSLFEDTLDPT
Protocol: The PKMYT1 kinase assay was conducted with the LanthaScreen™ Eu kinase binding method, as provided by Thermo Fisher Scientific (Waltham, MA, USA). Initially, compounds were prepared at a concentration of 4 mM in DMSO and subsequently diluted to various concentrations in 1X buffer. […] The plate was then incubated in the dark at 25 °C for 1 h, and fluorescence signals were recorded at 665 nm and 615 nm.

HCC1569 cells [1] = assay: Cell proliferation assay (CCK-8), HCC1569; format: cell-based; settings: CCNE1-amplified breast cancer cells, 5-day incubation, mean ± SD, n = 3
Protocol: (§1) HCC1569 and OVCAR3 cells (2 × 10^3/well) were seeded in 96-well plates and cultured for 24 h at 37 °C, 5% CO2. Compounds at varying concentrations were added, followed by 5-day incubation. Cell viability was assessed using Cell Counting Kit-8 (CCK-8) with absorbance measurement at 450 nm. HCC1569 (BNCC341698) was purchased from BNCC and OVCAR3 (CL-0178) was purchased from Procell.

OVCAR3 cells [2] = assay: Cell proliferation assay (CCK-8), OVCAR3; format: cell-based; settings: CCNE1-amplified ovarian cancer cells, 5-day incubation, mean ± SD, n = 3
Protocol: as §1

A549 cells = assay: Anti-proliferative activity in low-expressing CCNE1 cells A549; format: cell-based
BEAS-2B cells = assay: Anti-proliferative activity in normal lung epithelial cells BEAS-2B; format: cell-based
OVCAR3 cells [3] = assay: Cell cloning (colony formation) assay; format: cell-based; settings: OVCAR3, 14 days of incubation, varying concentrations
Protocol: OVCAR3 cells (4 × 10^3/well) were seeded into 6-well plates and incubated for 24 h at 37 °C in a 5% CO2 atmosphere. Compound MY-14 was then added at varying concentrations, followed by a 14-day incubation period. Subsequently, cells were fixed with a 4% paraformaldehyde solution and stained using crystal violet solution, after which colonies were quantified using ImageJ 1.54 software.

HCC1569 cells [4] = assay: Cell apoptosis assay (Annexin V-FITC/PI flow cytometry); format: cell-based; parameters: Q1 / Q2 / Q3 / Q4: unit not given here
Protocol: HCC1569 cells (1 × 10^5/well) were seeded in 6-well plates and cultured for 24 h at 37 °C, 5% CO2. MY-14 at varying concentrations were added, followed by 5-day incubation. Cells were trypsinized and pelleted by centrifugation. Subsequent analysis was performed per the Medilunbio kit protocol: staining was conducted with propidium iodide (PI) and Annexin V-FITC. After 15 min incubation, samples were analyzed by flow cytometry.

HCC1569 cells [5] = assay: Cell cycle assay (PI flow cytometry); format: cell-based
Protocol: HCC1569 cells (1 × 10^5/well) were seeded in 6-well plates and cultured for 24 h at 37 °C under 5% CO2. MY-14 at varying concentrations were added, followed by 5-day incubation. Cells were trypsinized, pelleted by centrifugation, and fixed with 70% ethanol. Subsequent staining was performed with propidium iodide (PI) and RNase A according to the Beyotime kit protocol. After 30 min incubation at 37 °C, samples were analyzed by flow cytometry.

Question: With CCOP(=O)(OCC)c1ccc(Nc2ncc(C(=O)Nc3c(C)ccc(O)c3C)c(N)n2)cc1 [MY-14] as the compound, how does the IC50 (PKMYT1) read?
Answer: The IC50 was 2.6 nM.

Question: What about the IC50 (HCC1569 cells [1]) of the same compound?
Answer: The IC50 was 1060 ± 180 nM.

Question: And the IC50 (HCC1569 cells [1]; Homo sapiens, HCC1569, 120 h)?
Answer: The IC50 was 1020 nM.

Question: What about the IC50 (OVCAR3 cells [2]) of the same compound?
Answer: The IC50 was 800 ± 70 nM.

Question: And the IC50 (OVCAR3 cells [2]; Homo sapiens, OVCAR-3, 120 h)?
Answer: The IC50 was 820 nM.

Question: What about the “cytotoxicity (in words)” value (A549 cells; A549, CCNE1-low) of the same compound?
Answer: Its value is “did not exhibit cytotoxicity; also recorded: reduced cytotoxicity”.

Question: What about the IC50 (A549 cells; Homo sapiens, A549, lung cancer cells, low CCNE1 expression, mean ± SD, n = 3) of the same compound?
Answer: The IC50 was greater than 8000 nM.

Question: What about the “cytotoxicity (in words)” value (BEAS-2B cells; BEAS-2B lung epithelial cells) of the same compound?
Answer: Its value is “did not exhibit cytotoxicity; also recorded: reduced cytotoxicity”.

Question: What about the IC50 (BEAS-2B cells; Homo sapiens, BEAS-2B, lung epithelial cells, mean ± SD, n = 3) of the same compound?
Answer: Its IC50 is greater than 8000 nM.

Question: And the “colony formation (in words)” value (OVCAR3 cells [3])?
Answer: Its value is “inhibited colony formation in a dose-dependent manner”.

Question: What about the “apoptosis induction (in words)” value (HCC1569 cells [4]; HCC1569) of the same compound?
Answer: Its value is “induced apoptosis in a concentration-dependent manner; also recorded: induced apoptosis-mediated cell death”.

Question: What about the Q1 (HCC1569 cells [4]; HCC1569, 0.5 μM) of the same compound?
Answer: Its Q1 is 4.66.

Question: What about the Q2 (HCC1569 cells [4]; HCC1569, 0.5 μM) of the same compound?
Answer: Its Q2 is 0.51.

Question: What about the Q3 (HCC1569 cells [4]; HCC1569, 0.5 μM) of the same compound?
Answer: The Q3 was 18.6.

Question: What about the Q4 (HCC1569 cells [4]; HCC1569, 0.5 μM) of the same compound?
Answer: Its Q4 is 76.2.

Question: And the Q1 (HCC1569 cells [4]; HCC1569, 1.0 μM)?
Answer: Its Q1 is 3.91.

Question: What about the Q2 (HCC1569 cells [4]; HCC1569, 1.0 μM) of the same compound?
Answer: Its Q2 is 0.20.

Question: And the Q3 (HCC1569 cells [4]; HCC1569, 1.0 μM)?
Answer: The Q3 was 21.2.

Question: What about the Q4 (HCC1569 cells [4]; HCC1569, 1.0 μM) of the same compound?
Answer: Its Q4 is 74.7.

Question: What about the Q1 (HCC1569 cells [4]; HCC1569, 2.0 μM) of the same compound?
Answer: The Q1 was 4.24.

Question: What about the Q2 (HCC1569 cells [4]; HCC1569, 2.0 μM) of the same compound?
Answer: The Q2 was 1.07.

Question: And the Q3 (HCC1569 cells [4]; HCC1569, 2.0 μM)?
Answer: The Q3 was 40.4.

Question: What about the Q4 (HCC1569 cells [4]; HCC1569, 2.0 μM) of the same compound?
Answer: Its Q4 is 54.3.

Question: And the Q1 (HCC1569 cells [4]; HCC1569, 4.0 μM)?
Answer: The Q1 was 4.11.

Question: And the Q2 (HCC1569 cells [4]; HCC1569, 4.0 μM)?
Answer: Its Q2 is 1.14.

Question: What about the Q3 (HCC1569 cells [4]; HCC1569, 4.0 μM) of the same compound?
Answer: The Q3 was 46.3.

Question: What about the Q4 (HCC1569 cells [4]; HCC1569, 4.0 μM) of the same compound?
Answer: Its Q4 is 48.5.

Question: What about the maximal apoptotic rate (HCC1569 cells [4]; HCC1569, 5-day incubation) of the same compound?
Answer: The maximal apoptotic rate was 47.44%.

Question: And the “cell-cycle arrest (in words)” value (HCC1569 cells [5])?
Answer: The value was “arrested cell-cycle progression at the S-phase; also recorded: G1/S phase cell-cycle arrest”.

Question: What about the “distribution of G2/M-phase cells (in words)” value (HCC1569 cells [5]) of the same compound?
Answer: Its value is “no significant impact”.

Question: And the “proportion of G1-phase cells (in words)” value (HCC1569 cells [5])?
Answer: Its value is “reducing the proportion of G1-phase cells”.

Question: And the “proportion of S-phase cells (in words)” value (HCC1569 cells [5])?
Answer: Its value is “concentration-dependent increase in the proportion of S-phase cells”.
